From article PMC11171218, “N-Benzylated 5-Hydroxybenzothiophene-2-carboxamides as Multi-Targeted Clk/Dyrk Inhibitors and Potential Anticancer Agents” (Cancers, 2024) come the findings set out here.

For one assay, the system named is T24 cells. Nature of the assay: Apoptosis assay (Annexin V-FITC/PI, flow cytometry). The assay is classed as cell-based, human. To be noted: 24 h. Here is the method:
Apoptosis was examined by Annexin V-FITC/PI Apoptosis Kit (Cat# E-CK-A211, Elabscience, Houston, TX, USA) following the manufacturer’s protocol and analyzed by flow cytometry.
Figure 3 Annexin V and PI staining in T24 cells to investigate if compounds 12 and 17 could induce apoptotic death. T24 cells were treated with DMSO (0.1%), 12 (30–50 µM), or 17 (30–50 µM) for 24 h and then stained with Annexin V-FITC antibody and PI. The Annexin V-positive apoptotic cells were monitored using flow cytometry. All data are expressed as the mean ± S.E.M. (n = 3). * p < 0.05, ** p < 0.01 compared with the DMSO group. […] Best reading, upper row: Q1-UL 0.1%, Q1-UR 4.5%, Q1-LL 84.7%, Q1-LR 10.7%. Lower row: Q1-UL 0.2%, Q1-UR 5.1%, Q1-LL 84.9%, Q1-LR 9.8%. They are left out of lines because no compound is present.

The next assay has as its system cleaved caspase-3. In words: Western blot, cleaved caspase-3 in T24 cells. The assay is classed as cell-based, human. As to conditions: 10–50 μM, 24 h. An excerpt: Cell lysates were sequentially suspended in commercial RIPA Buffer (pH 7.4; Cat# RB4475, Bio Basic, Markham, Ontario, Canada) containing Protease Inhibitor Cocktail and PhosSTOP (Merck, Darmstadt, Germany), boiled in sodium dodecyl sulphate (SDS) sample buffer, separated by SDS-polyacrylamide gel electrophoresis (PAGE), and electrophoresed onto a PVDF membrane. Antibodies used in this study were Bcl-2 (Cat#A19693, RRID: AB_2862738) and Bax (Cat# A0207, RRID: AB_2757021) from ABclonal (Boston, MA, USA); cleaved caspase-3 (Cat# 9662, RRID: AB_331439) and GAPDH (Cat# 8884, RRID:AB_11129865) from Cell Signaling Technology (Beverly, MA, USA). The labeled signals were determined using HRP-conjugated secondary antibodies and the Bio-rad ChemiDoc™ MP Imaging System (Berkeley, CA, USA).
Figure 4 Examining the effect of 12 and 17 on proapoptotic and antiapoptotic pathways. T24 cells were treated with DMSO (0.1%), 12 (30–50 µM), or 17 (30–50 µM) for 24 h. Expression levels of cleaved caspase-3, Bax, Bcl-2, and GAPDH were analyzed by Western blot by corresponding antibodies. The quantitation of the cleaved caspase-3/GAPDH, Bax/GAPDH, and Bcl-2/GAPDH ratio are shown. All data are expressed as the mean ± S.E.M. (n = 3). * p < 0.05, ** p < 0.01, *** p < 0.001 compared with the DMSO group.

Take `COc1cccc(CNC(=O)c2cc3cc(O)ccc3s2)c1` [Compound 12, 5-Hydroxy-N-(3-methoxybenzyl)benzo[b]thiophene-2-carboxamide]: the “Apoptotic cell population (Annexin V-positive)” value with T24 cells (50 µM) is recorded as “increased the apoptotic cell population”. The “Level of cleaved caspase-3” value with cleaved caspase-3 was “increased the proapoptotic levels of cleaved caspase-3 and Bax”.

For the compound `O=C(NCc1cc(F)cc(F)c1)c1cc2cc(O)ccc2s1` [Compound 17, N-(3,5-Difluorobenzyl)-5-hydroxybenzo[b]thiophene-2-carboxamide], in the assay with T24 cells (30 and 50 μM), the “Apoptotic cell population (Annexin V-positive)” value is on record as “dose-dependently increased the apoptotic cell population”. Moreover, the “Level of cleaved caspase-3” value in the assay with cleaved caspase-3 was “increased the proapoptotic levels of cleaved caspase-3 and Bax”.
